{"source": "patent EP0452507A1", "about": "“MEDICINE COMPRISING TOCOPHERYL GLYCOSIDE AS ACTIVE INGREDIENT” (NIPPON HYPOX LABORATORIES INCORPORATED, priority 1989, dated 1991)", "key": {"[1]": {"tested_on": "stomach (mucosal ulcer in the glandular portion)", "format": "in vivo, rats", "conditions": "rat, in vivo", "description": "15 male SD rats weighing 180 to 220 g were used. These rats were fasted for 24 hours, and separated to three groups each consisting of 5 rats.\nThen, one group was used as Control group. A physiological saline solution of 10 % Nikkol was administered intraperitoneally, and the rats were sacrificed with ether 16 hours after the administration. The stomach of each rat was removed, and after 10 ml of physiological saline was injected into the stomachs, the stomachs were fixed by immersing them in a 1 % formalin for 10 minutes. Each stomach was dissected along the greater curvatura, and the length (mm) of mucosal ulcer which occurred in the glandular portion was measured under an anatomical microscope (x 10). The average of the ulcer lengths of the five rats was taken as an ulcer index.\nOne out of the remaining two groups was used as Example group @. The procedure for Control group was repeated except that a physiological saline solution of 10 % Nikkol containing VIE-MAN in place of the physiological saline solution of 10 % Nikkol was administered intraperitoneally in such a dose that the amount of VIE-MAN was 300 mg/kg, and the ulcer index was determined.\nThe remaining one group was used as Comparative Example group ⓘ. The procedure for Example group 17 was repeated except that a physiological saline solution of 10 % Nikkol containing indomethacin, which was a nonsteroidal anti-inflammatory preparation (antipyretic analgesic antiphlogistic preparation), in place of the physiological saline solution of 10 % Nikkol was administered intraperitoneally in such a dose that the amount of the indomethacin was 20 mg/kg, and the ulcer index was determined."}, "[2]": {"tested_on": "antigen-adjuvant-induced inflammation", "assay": "antigen-adjuvant-induced inflammation, right hind paw swelling by volumetry", "format": "in vivo, rats", "conditions": "10 mg/kg intraperitoneally", "description": "(§1) At first, five groups each consisting of five SD male rats weighing 180 to 220 g (total 25 rats) were prepared, and each rat was measured for a size of the subplantar region of the right hind paw. As an antigen to cause an antigen-adjuvant-induced inflammation, 0.2 mg/rat of egg-white albumin was used. Further, as an immune aid (adjuvant), a mixture consisting of 4 mg/rat of aluminum hydroxide and 0.1 ml/rat of pertussis vaccine was prepared.\nOne out of the five groups was used as Control group. A physiological saline solution of 10 % Nikkol (trade name, dissolving aid, supplied by Nikko Chemical Co., Ltd.) was administered intraperitoneally to each rat, and 0.5 hour after the administration of the physiological saline solution of 10 % Nikkol, the above antigen and adjuvant were administered intracutaneously into the subplantar region of the right hind paw. Then, 0.5, 1, 2, 4, 6, 12 and 24 hours after the administration of the antigen and adjuvant, the swelling on the subplantar region of the right hind paw of each rat was measured by volumetry. And, the average of swelling ratios of the group in every measurement was determined on the basis of the measurement values of the sizes of subplantar regions of the right hind paws of the rats obtained before the administration of the physiological saline solution of 10 % Nikkol.\nOne of the remaining four groups was used as Example group @. A physiological saline solution of 10 % Nikkol containing VIE-MAN was administered intraperitoneally into each rat of this group in such a dose that the amount of VIE-MAN was 10 mg/kg, and 0.5 hours after the administration of the physiological saline solution of 10 % Nikkol containing VIE-MAN, the above antigen and adjuvant were administered intracutaneously into the subplantar region of the right hind paw. Thereafter, the swelling on the subplantar region of the right hind paw of each rat was measured in the same manner as that for Control group, and the average of swelling ratios of the group in every measurement was determined.\n(§2) The same procedure as that for Example group ⑧ was carried out except that a physiological saline solution of 10 % Nikkol containing hydrocortisone which was an anti-inflammatory preparation (immunosuppressive preparation) in place of the physiological saline solution of 10 % Nikkol containing VIE-MAN was administered intraperitoneally in such a dose that the amount of the hydrocortisone was 10 mg/kg.\nas §2, with “diphenhydramine” for “hydrocortisone”, “antihistamine” for “anti-inflammatory”, “preparation” for “preparation (immunosuppressive preparation)”\nas §2, with “containing indomethacin” for “containing hydrocortisone”, “was a nonsteroidal” for “was an”, “preparation (antipyretic analgesic antiphlogistic” for “preparation (immunosuppressive”, “the indomethacin” for “the hydrocortisone”\nas §1, with “first, four” for “first, five”, “five male” for “five”, “SD” for “SD male”, “(total 20” for “(total 25”, “an antigen- adjuvant-induced” for “an antigen-adjuvant-induced”, “was prepared.” for “was used.”\nOne out of the four groups was used an Control group, and the procedure for Control group in Example 4 was repeated to determine the average of the swelling ratios as a group unit."}, "[3]": {"tested_on": "carrageenin-induced inflammation", "assay": "carrageenin-induced inflammation, right hind paw swelling by volumetry", "format": "in vivo, rats", "conditions": "Example 7, Fig. 6", "description": "Six groups each consisting of five male SD rats weighing 180 to 220 g were used (total 30 rats), and each rat was measured for a size of the subplantar region1 of the right hind paw.\nIn order to induce carrageenin-induced inflammation, 0.1 ml/rat of a physiological saline solution of 1 % X-carrageenin was prepared.\nOne out of the six groups was used as Control group. A physiological saline solution of 10 % Nikkol was administered intraperitoneally to each rat of this group, and 0.5 hours after the administration of the physiological saline solution of 10 % Nikkol, 0.1 ml of the physiological saline solution of 1 % X-carrageenin was administered intracutaneously into the subplantar region of the right hind paw of each rat. Then, 0.5, 1, 2, 3 and 4 hours after the administration of […] of the physiological saline solution of 1 % X-carrageenin, the swelling on the subplantar region of the right hind paw of each rat was measured by volumetry, arid the average of swelling ratios of the group in every measurement was determined on the basis of the measurement values of the sizes of subplantar regions of the right hind paws of the rats obtained before the administration of the physiological saline solution of 10 % Nikkol solution.\nThe procedure for Control group was repeated except that a physiological saline solution of 10 % Nikkol containing VIE-MAN in place of the physiological saline solution of 10 % Nikkol was administered intraperitoneally in such a dose that the amount of VIE-MAN was 10 mg/kg.\nThe procedure for Control group was repeated except that a physiological saline solution of 10 % Nikkol containing VIE-MAN in place of the physiological saline solution of 10 % Nikkol was administered intraperitoneally in such a dose that the amount of VIE-MAN was 30 mg/kg.\nThe procedure for Control group was repeated except that a physiological saline solution of 10 % Nikkol containing VIE-MAN in place of the physiological saline solution of 10 % Nikkol was administered intraperitoneally in such a dose that the amount of VIE-MAN was 100 mg/kg.\n(§3) The procedure for Example groups ⑭, ⑮ and ⑯ was repeated except that a physiological saline solution of 10 % Nikkol containing cortisone acetate which was a steroidal anti-inflammatory preparation (immunosuppressive preparation) in place of the physiological saline solution of 10 % Nikkol containing VIE-MAN was administered intraperitoneally in such a dose that the amount of the cortisone acetate was 10 mg/kg.\nas §3, with “indomethacin” for “cortisone acetate”, “nonsteroidal” for “steroidal”, “(antipyretic analgesic antiphlogistic” for “(immunosuppressive”"}, "[4]": {"tested_on": "IgE antibody", "format": "in vivo, rats", "description": "At first, 20 male SD rats weighing 180 to 220 g were prepared. Egg-white albumin in an amount of 1 mg per rat was prepared as an antigen to induce the IgE antibody-antigen mediating immune response. Further, a mixture of 20 mg/rat of aluminum hydroxide with 0.6 mi/rat of pertussis vaccine was prepared as an immune aid (adjuvant).\nThen, the above antigen and the above adjuvant were equally administered intracutaneously into the four footpads of each rat for sensitization.\n24 Hours after the sensitization, the footpad swelling of each rat was measured by volumetry to determine the swelling ratio (unit: %). Then, the rats were separated into four groups each consisting of 5 rats such that the average swelling ratio of one group was nearly equal to that of another group.\nThereafter, one of the four groups was used as Control group, and a physiological saline solution of 10 % Nikkol (trade name, dissolving aid, supplied by Nikko Chemical Co., Ltd.) was administered intraperitoneally to each rat for the 11 consecutive days after the group separation, and on 15th day after the group separation, the serum of each rat was collected, and measured for an IgE antibody amount by means of a 48-hour homologous PCA reaction (passive cutaneous anaphylaxis reaction) as an index. In addition, the IgE antibody amount is shown in terms of a maximum dilution (unit: %) of serum showing positive reaction (blue spot having a diameter of not less than 5 mm).\nTwo groups of the remaining three groups were used as Example groups ⑥ and 0. A physiological saline solution of 10 % Nikkol containing VIE-MAN was administered intraperitoneally to each rat of Example group ⑥ in such a dose that the amount of VIE-MAN was 30 mg/kg/day for 11 days after the group separation. And, a physiological saline solution of 10 % Nikkol containing VIE-MAN was administered intraperitoneally to each rat of Example group 0 every other day (number of days for administration: 6 days) in such a dose that the amount of VIE-MAN was 100 mg/kg/day for 11 days after the group separation. Then, on 15th day after the group separation, the serum of each rat was collected, and measured for an IgE antibody amount in the same manner as that for Control group.\nOne remaining group of the four groups was used as Comparative Example group @. A physiological saline solution of 10 % Nikkol containing hydrocortisone which was an adrenocortical hormone preparation was administered intraperitoneally to each rat in such a dose that the amount of the hydrocortisone was 10 mg/kg/day for the consecutive 11 days after the group separation. Then, on 15th day after the group separation, the serum of each rat was collected, and measured for an IgE antibody amount in the same manner as that for Example groups 6 and ⑦."}, "[5]": {"tested_on": "delayed-type hypersensitivity", "assay": "picryl chloride-induced delayed-type hypersensitivity, ear swelling ratio", "format": "in vivo, mice", "conditions": "Example 1, Fig. 1; VIE-MAN 10, 30, 100 mg/kg/day versus methotrexate 1 mg/kg/day, intraperitoneally", "description": "76 Male mice (C57BU6Ncrj) weighing 18 to 20 g were used. The abdominal portion of each mouse was shaved such that the shaved portion was about 1 cm^2. Thereafter, 20 µl of an ethanol solution of 7 % picryl chloride was applied to the shaved portions for sensitization.\nEighteen out of the 76 mice were used as Control group. A physiological saline solution containing 10 % Nikkol (Nikkol: trade name, dissolving aid, supplied by Nikko Chemical Co., Ltd.) was administered intraperitoneally to the 18 mice for the consecutive 5 days after the sensitization, and ear thickness of each of these 18 mice was measured on the eighth day after the sensitization. Thereafter, 20 µl of an olive oil solution of 1 % picryl chloride was applied to the ear of each of the mice to cause delayed-type hypersensitivity.\nThe above pharmaceutical solutions were administered intraperitoneally at the above-described doses for the five consecutive days after the sensitization, and ear thickness of each of these mice was measured on the eighth day after the sensitization. Thereafter, 20 µl of an olive oil solution of 1 % picryl chloride was applied to the ear of each of the mice to cause delayed-type hypersensitivity.\n24 Hours after the delayed-type hypersensitivity was induced, the swelling of the ear of each of the mice of Control group and Example groups ①, ②and③ was measured with a dial thickness gauge. On the basis of the values of the ear thickness measured before the application of the olive oil solution of 1 % picryl chloride, the swelling ratio of each of Example groups ①, ② and ③ and Control group was determined.\nAnd, the swelling ratio of the mice was determined.\nAt first, the abdominal portion of each of forty ICR male mice weighing 20 to 25 g was shaved such that the shaved portion was about 1 cm^2. Thereafter, 20 µl of an ethanol solution of 7 % picryl chloride was applied to the shaved portions for sensitization."}}}
{"smiles": "Cc1c(C)c2c(c(C)c1OC1OC(CO)C(O)C(O)C1O)CCC(C)(CCCC(C)CCCC(C)CCCC(C)C)O2", "note": "(racemic) [VIE-GAL, dl-a-tocopheryl-,B-galactoside]", "values": [{"measurement": "side effect on the digestive system", "setting": "[1]", "result": "nearly similar results to that of the test on VIE-MAN"}, {"measurement": "inhibition activity against antigen-adjuvant-induced inflammations", "setting": "[2]; Example 5, Fig. 4, 10 mg/kg", "result": "also superior"}, {"measurement": "average of the swelling ratios", "setting": "[2]; Example 5, Fig. 4, 0.5 hour after administration of antigen and adjuvant, versus Control group", "result": "significantly lower than that of the swelling ratios of Control group"}]}
{"smiles": "CC(=O)OCC(=O)[C@@]1(O)CC[C@H]2[C@@H]3CCC4=CC(=O)CC[C@]4(C)[C@H]3C(=O)C[C@@]21C", "note": "[cortisone acetate]", "values": [{"measurement": "inhibition activity against carrageenin-induced inflammation", "setting": "[3]; VIE-MAN 10, 30, 100 mg/kg, depending upon its dose, comparators 10 mg/kg, intraperitoneally", "result": "significant activity at and after 0.5 hour"}, {"measurement": "inhibition activity against carrageenin-induced inflammation compared with VIE-MAN", "setting": "[3]; comparators 10 mg/kg intraperitoneally", "result": "lower than that of VIE-MAN"}]}
{"smiles": "CN(C)CCOC(c1ccccc1)c1ccccc1", "note": "[diphenhydramine, reference compound]", "values": [{"measurement": "inhibition activity against antigen-adjuvant-induced inflammations", "setting": "[2]; Example 4, Fig. 3", "result": "no inhibition activity was found"}]}
{"smiles": "C[C@]12CCC(=O)C=C1CC[C@@H]1[C@@H]2[C@@H](O)C[C@@]2(C)[C@H]1CC[C@]2(O)C(=O)CO", "note": "[hydrocortisone, reference compound]", "values": [{"measurement": "inhibition activity against the IgE antibody production", "setting": "[4]; Example 3 / Comparative Example 2, VIE-MAN 30 or 100 mg/kg/day, hydrocortisone 10 mg/kg/day, intraperitoneally", "result": "lower than that of VIE-MAN"}, {"measurement": "IgE antibody amount in serum, Average value", "setting": "[4]; group average, (total 11 days) intraperitoneally, maximum dilution of serum showing positive reaction", "result": 473.6}, {"measurement": "inhibition activity against antigen-adjuvant-induced inflammations", "setting": "[2]; Example 4, Fig. 3", "result": "no inhibition activity was found"}]}
{"smiles": "CN(Cc1cnc2nc(N)nc(N)c2n1)c1ccc(C(=O)N[C@@H](CCC(=O)O)C(=O)O)cc1", "note": "[methotrexate, reference compound]", "values": [{"measurement": "preventive and therapeutical effect on delayed-type hypersensitivity (comparison)", "setting": "[5]", "result": "VIE-MAN was superior to methotrexate"}]}
